The source made the active and inactive calls. No cut-off for these calls is given here.
How the values were obtained:
SK-HEP1 [1] = assay: Antiproliferative activity against human SK-Hep1 cells assessed as inhibition of cell viability at less than 0.068 uM treated for 24 hrs by MTT assay; assay type: functional
SK-HEP1 [2] = assay: Antiproliferative activity against human SK-Hep1 cells assessed as inhibition of cell viability at less than 0.227 uM treated for 24 hrs by MTT assay; assay type: functional
SK-HEP1 [3] = assay: Induction of mitochondrial membrane potential changes in human SK-Hep1 cells assessed as decrease in TMRE positive cells at 10 to 80 nM incubated for 24 hrs by TMRE staining based flow cytometry (reference value: 87.92 %); assay type: functional; parameters: scale not given: the % may be the effect or the level left; conditions: dose 10-80 nM
[4] = Acute toxicity in Kunming mouse assessed as animal survival at 400 mg/kg, ip measured for 14 consecutive days; assay type: organism-based; conditions: in vivo, 336 h, time 14 day
[5] = Acute toxicity in Kunming mouse assessed as frequency of eating at 400 mg/kg, ip measured for 14 consecutive days; assay type: organism-based; conditions: in vivo, 336 h, time 14 day
[6] = Acute toxicity in Kunming mouse assessed as frequency of defecation at 400 mg/kg, ip measured for 14 consecutive days; assay type: organism-based; conditions: in vivo, 336 h, time 14 day
Huh-7 [7] = assay: Antitumor activity against human Huh-7 cells xenografted in BALB/c mouse assessed as tumor growth inhibition at 10 mg/kg, ip qd for 11 days and measured every 2 days relative to control; assay type: functional; conditions: Huh-7, 264 h, time 11 day, read-out: TGI
Huh-7 [8] = assay: Antitumor activity against human Huh-7 cells xenografted in BALB/c mouse assessed as reduction in neo-vascularisation at 10 mg/kg, ip qd for 11 days and measured after 12 days by hematoxylin and eosin staining based assay; assay type: functional, organism-based; conditions: time 12.0 day
[9] = Toxicity in BALB/c mouse xenografted with human Huh-7 cells assessed as histopathological change in liver at 10 mg/kg, ip qd for 11 days and measured after 12 days by hematoxylin and eosin staining based assay; assay type: organism-based; conditions: in vivo, 288 h, time 12 day
[10] = Toxicity in BALB/c mouse xenografted with human Huh-7 cells assessed as histopathological change in kidney at 10 mg/kg, ip qd for 11 days and measured after 12 days by hematoxylin and eosin staining based assay; assay type: organism-based; conditions: in vivo, 288 h, time 12 day
[11] = Toxicity in BALB/c mouse xenografted with human Huh-7 cells assessed as histopathological change in heart at 10 mg/kg, ip qd for 11 days and measured after 12 days by hematoxylin and eosin staining based assay; assay type: organism-based; conditions: in vivo, 288 h, time 12 day
[12] = Toxicity in BALB/c mouse xenografted with human Huh-7 cells assessed as histopathological change in lung at 10 mg/kg, ip qd for 11 days and measured after 12 days by hematoxylin and eosin staining based assay; assay type: organism-based; conditions: in vivo, 288 h, time 12 day
[13] = Toxicity in BALB/c mouse xenografted with human Huh-7 cells assessed as histopathological change in spleen at 10 mg/kg, ip qd for 11 days and measured after 12 days by hematoxylin and eosin staining based assay; assay type: organism-based; conditions: in vivo, 288 h, time 12 day
[14] = Toxicity in BALB/c mouse xenografted with human Huh-7 cells assessed as reduction in platelet levels at 10 mg/kg, ip qd for 11 days and measured on day 11; assay type: organism-based; conditions: in vivo, 264 h, time 11 day
[15] = Toxicity in BALB/c mouse xenografted with human Huh-7 cells assessed as reduction in WBC levels at 10 mg/kg, ip qd for 11 days and measured on day 11; assay type: organism-based; conditions: in vivo, 264 h, time 11 day
[16] = Toxicity in BALB/c mouse xenografted with human Huh-7 cells assessed as bone marrow suppression at 10 mg/kg, ip qd for 11 days and measured on day 11; assay type: organism-based; conditions: in vivo, 264 h, time 11 day
[17] = Toxicity in BALB/c mouse xenografted with human Huh-7 cells assessed as aplastic anemia at 10 mg/kg, ip qd for 11 days and measured on day 11; assay type: organism-based; conditions: in vivo, 264 h, time 11 day
[18] = Half life in Sprague-Dawley rat at 80 mg/kg, ip measured upto 24 hrs by LC-MS analysis; assay type: ADME, organism-based; conditions: in vivo
[19] = Tmax in Sprague-Dawley rat at 80 mg/kg, ip measured upto 24 hrs by LC-MS analysis; assay type: ADME, organism-based; conditions: in vivo
[20] = Cmax in Sprague-Dawley rat at 80 mg/kg, ip measured upto 24 hrs by LC-MS analysis; assay type: ADME, organism-based; parameters: dose 80 mg/kg, time < 24 hrs, route ip; conditions: in vivo
[21] = AUC (0 to t) in Sprague-Dawley rat at 80 mg/kg, ip measured upto 24 hrs by LC-MS analysis; assay type: ADME, organism-based; parameters: time < 24 hrs, dose 80 mg/kg, route ip; conditions: in vivo
[22] = MRT (0 to t) in Sprague-Dawley rat at 80 mg/kg, ip measured upto 24 hrs by LC-MS analysis; assay type: ADME, organism-based; conditions: in vivo
[23] = Acute toxicity in Kunming mouse assessed as animal survival at 100 mg/kg, ip measured for 14 consecutive days; assay type: organism-based; conditions: in vivo, 336 h, time 14 day
Huh-7 [24] = assay: Antiproliferative activity against human Huh-7 cells assessed as inhibition of cell viability at less than 0.023 uM treated for 24 hrs by MTT assay; assay type: functional
Huh-7 [25] = assay: Antiproliferative activity against human Huh-7 cells assessed as inhibition of cell viability at less than 0.021 uM treated for 24 hrs by MTT assay; assay type: functional
SK-HEP1 [26] = assay: Induction of mitochondrial membrane potential changes in human SK-Hep1 cells assessed as decrease in TMRE positive cells at 10 to 80 nM incubated for 24 hrs by TMRE staining based flow cytometry (reference value: 86.19 %); assay type: functional; parameters: scale not given: the % may be the effect or the level left; conditions: dose 10-80 nM
[27] = Acute toxicity in Kunming mouse assessed as frequency of eating at 100 mg/kg, ip measured for 14 consecutive days; assay type: organism-based; conditions: in vivo, 336 h, time 14 day
[28] = Acute toxicity in Kunming mouse assessed as frequency of defecation at 100 mg/kg, ip measured for 14 consecutive days; assay type: organism-based; conditions: in vivo, 336 h, time 14 day

SMILES: CC(=O)Oc1ccc2[nH]c3c(c2c1)CCN1C(=O)c2cc(F)cc(F)c2N(c2cccc(F)c2)C31 (stereo not drawn)
- Activity (SK-HEP1 [1]): >80%
- Activity (SK-HEP1 [2]): >80%
- Activity (SK-HEP1 [3]): 65.21%
- Activity [4]: Non-Toxic
- Activity [5]: Non-Toxic
- Activity [6]: Non-Toxic
- inhibition in vivo at 10 mg/kg (Huh-7 [7]): 60.4%
- Activity (Huh-7 [8]): Active
- Activity [9]: Non-Toxic
- Activity [10]: Non-Toxic
- Activity [11]: Non-Toxic
- Activity [12]: Non-Toxic
- Activity [13]: Non-Toxic
- Activity [14]: Non-Toxic
- Activity [15]: Non-Toxic
- Activity [16]: Non-Toxic
- Activity [17]: Non-Toxic
- half-life [18]: 7.24 h
- Tmax [19]: 3 h
- Cmax [20]: 350 ng/mL
- AUC(0-t) at 24 h [21]: 3070 ng·h/mL
- MRT last at 24 h [22]: 11.5 h

SMILES: O=C1c2cc(F)cc(F)c2N(c2cccc(F)c2)C2c3[nH]c4ccc(O)cc4c3CCN12 (stereo not drawn)
- Activity [23]: Non-Toxic
- Activity (Huh-7 [24]): >80%
- Activity (Huh-7 [25]): >80%
- Activity (SK-HEP1 [26]): 63.69%
- Activity [27]: Non-Toxic
- Activity [28]: Non-Toxic

From ChEMBL document CHEMBL5154935, “Design, Synthesis, and Biological Evaluation of Novel Evodiamine Derivatives as Potential Antihepatocellular Carcinoma Agents” (J Med Chem, 2022)
